What was measured:
Assay in all cases: KinomeScan profiling
Assay type in all cases: binding
[1] = molecular target: T1, RPS6KA4(Kin.Dom.2-C-terminal) (Homo sapiens, UniProt O75676); details: read-out: % control
T1 construct: RPS6KA4(Kin.Dom.2-C-terminal)
In short: (§1)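 The panel spans 468 kinases, and each inventive compound was applied at 1 μM from DMSO. Lower % control means stronger binding; the activity cut-off is set at less than 35%.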

[2] = molecular target: CSNK2A2 (Homo sapiens, UniProt P19784); details: CSNK2A2, 1 μM; read-out: % control
Sequence of CSNK2A2 (P19784 whole entry): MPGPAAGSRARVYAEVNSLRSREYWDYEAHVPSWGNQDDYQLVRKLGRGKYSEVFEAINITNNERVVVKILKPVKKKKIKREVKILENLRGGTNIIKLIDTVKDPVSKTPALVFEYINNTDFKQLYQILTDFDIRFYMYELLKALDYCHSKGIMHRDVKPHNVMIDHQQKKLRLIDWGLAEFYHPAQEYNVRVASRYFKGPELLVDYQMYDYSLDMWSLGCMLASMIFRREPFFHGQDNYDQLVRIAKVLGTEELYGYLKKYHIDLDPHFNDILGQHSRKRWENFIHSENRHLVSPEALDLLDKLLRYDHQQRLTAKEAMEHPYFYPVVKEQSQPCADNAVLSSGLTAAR
In short: as §1

[3] = molecular target: WNK4 (Homo sapiens, UniProt Q96J92); details: WNK4, 1 μM; read-out: % control
Sequence of WNK4 (Q96J92 whole entry): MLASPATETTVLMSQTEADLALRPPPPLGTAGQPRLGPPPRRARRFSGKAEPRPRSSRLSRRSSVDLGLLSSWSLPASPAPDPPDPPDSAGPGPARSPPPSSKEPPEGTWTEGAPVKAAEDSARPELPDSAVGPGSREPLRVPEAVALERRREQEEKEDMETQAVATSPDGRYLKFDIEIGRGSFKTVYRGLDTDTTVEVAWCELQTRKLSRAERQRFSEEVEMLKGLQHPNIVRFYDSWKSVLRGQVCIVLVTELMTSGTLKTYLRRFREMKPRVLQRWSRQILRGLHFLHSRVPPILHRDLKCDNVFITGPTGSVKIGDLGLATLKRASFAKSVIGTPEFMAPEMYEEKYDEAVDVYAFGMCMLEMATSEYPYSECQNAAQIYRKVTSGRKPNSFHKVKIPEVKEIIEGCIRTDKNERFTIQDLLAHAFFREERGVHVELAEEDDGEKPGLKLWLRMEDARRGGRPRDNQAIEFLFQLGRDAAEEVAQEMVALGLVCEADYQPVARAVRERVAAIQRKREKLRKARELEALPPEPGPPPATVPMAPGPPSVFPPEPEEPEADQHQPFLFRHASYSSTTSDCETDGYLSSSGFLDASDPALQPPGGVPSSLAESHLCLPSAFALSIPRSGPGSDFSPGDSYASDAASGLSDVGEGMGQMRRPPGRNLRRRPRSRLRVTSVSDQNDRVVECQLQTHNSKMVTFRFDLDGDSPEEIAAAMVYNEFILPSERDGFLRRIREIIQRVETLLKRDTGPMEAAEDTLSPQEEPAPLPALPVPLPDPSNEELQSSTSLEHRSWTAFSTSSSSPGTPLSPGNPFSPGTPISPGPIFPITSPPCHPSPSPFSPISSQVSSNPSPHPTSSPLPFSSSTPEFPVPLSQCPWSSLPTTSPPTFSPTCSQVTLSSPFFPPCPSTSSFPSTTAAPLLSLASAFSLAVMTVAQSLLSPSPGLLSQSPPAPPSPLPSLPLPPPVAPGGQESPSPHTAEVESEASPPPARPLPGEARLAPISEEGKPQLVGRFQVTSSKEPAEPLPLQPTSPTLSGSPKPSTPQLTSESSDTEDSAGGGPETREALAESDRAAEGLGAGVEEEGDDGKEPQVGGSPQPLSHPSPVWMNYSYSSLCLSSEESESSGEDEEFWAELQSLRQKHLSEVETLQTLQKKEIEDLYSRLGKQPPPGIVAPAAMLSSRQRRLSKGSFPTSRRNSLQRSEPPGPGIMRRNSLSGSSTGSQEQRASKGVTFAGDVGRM
In short: as §1

[4] = molecular target: CSNK1G1 (Homo sapiens, UniProt Q9HCP0); details: CSNK1G1, 1 μM; read-out: % control
Sequence of CSNK1G1 (Q9HCP0 whole entry): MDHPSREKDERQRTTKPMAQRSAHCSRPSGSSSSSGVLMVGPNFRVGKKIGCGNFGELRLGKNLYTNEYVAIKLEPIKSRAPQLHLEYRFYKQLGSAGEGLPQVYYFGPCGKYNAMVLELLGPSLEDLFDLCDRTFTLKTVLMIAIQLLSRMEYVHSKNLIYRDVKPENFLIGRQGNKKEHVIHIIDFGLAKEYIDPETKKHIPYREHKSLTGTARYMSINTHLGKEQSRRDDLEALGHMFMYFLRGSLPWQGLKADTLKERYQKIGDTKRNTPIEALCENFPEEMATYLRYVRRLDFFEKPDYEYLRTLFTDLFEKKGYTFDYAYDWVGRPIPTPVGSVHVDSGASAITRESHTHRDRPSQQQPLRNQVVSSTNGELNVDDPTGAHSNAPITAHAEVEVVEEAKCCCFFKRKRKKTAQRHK
In short: as §1

[5] = molecular target: T2, FLT3(N841I) (Homo sapiens, UniProt P36888, N841I); details: read-out: % control
T2 sequence (P36888 27-993 N841I): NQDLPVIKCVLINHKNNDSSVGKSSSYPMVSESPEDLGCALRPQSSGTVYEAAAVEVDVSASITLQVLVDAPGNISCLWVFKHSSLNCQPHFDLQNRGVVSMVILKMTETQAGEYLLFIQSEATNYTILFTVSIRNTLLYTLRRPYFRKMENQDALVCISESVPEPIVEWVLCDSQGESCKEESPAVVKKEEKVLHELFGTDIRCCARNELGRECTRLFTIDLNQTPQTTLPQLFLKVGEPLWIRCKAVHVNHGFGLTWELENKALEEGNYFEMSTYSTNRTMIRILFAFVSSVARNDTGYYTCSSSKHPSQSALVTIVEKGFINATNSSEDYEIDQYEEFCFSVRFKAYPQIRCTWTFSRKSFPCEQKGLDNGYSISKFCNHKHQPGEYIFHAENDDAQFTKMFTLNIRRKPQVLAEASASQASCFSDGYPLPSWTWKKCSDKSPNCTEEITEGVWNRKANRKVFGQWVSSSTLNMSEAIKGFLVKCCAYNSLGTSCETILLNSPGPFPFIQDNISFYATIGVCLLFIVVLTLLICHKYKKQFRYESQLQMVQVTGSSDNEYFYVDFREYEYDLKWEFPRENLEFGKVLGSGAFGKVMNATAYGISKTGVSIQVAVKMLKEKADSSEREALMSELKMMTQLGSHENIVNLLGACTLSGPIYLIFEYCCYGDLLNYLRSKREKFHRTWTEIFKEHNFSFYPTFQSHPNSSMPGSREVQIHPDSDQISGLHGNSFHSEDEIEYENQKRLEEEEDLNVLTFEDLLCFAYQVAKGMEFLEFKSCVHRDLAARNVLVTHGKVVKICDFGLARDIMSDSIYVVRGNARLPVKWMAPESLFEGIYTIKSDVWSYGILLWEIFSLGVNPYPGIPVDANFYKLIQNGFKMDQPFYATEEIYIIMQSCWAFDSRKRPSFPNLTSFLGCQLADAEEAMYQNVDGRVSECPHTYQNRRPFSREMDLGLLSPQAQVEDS
In short: as §1

[6] = molecular target: NIK (Homo sapiens, UniProt Q99558); details: read-out: % control
Sequence of NIK (Q99558 whole entry): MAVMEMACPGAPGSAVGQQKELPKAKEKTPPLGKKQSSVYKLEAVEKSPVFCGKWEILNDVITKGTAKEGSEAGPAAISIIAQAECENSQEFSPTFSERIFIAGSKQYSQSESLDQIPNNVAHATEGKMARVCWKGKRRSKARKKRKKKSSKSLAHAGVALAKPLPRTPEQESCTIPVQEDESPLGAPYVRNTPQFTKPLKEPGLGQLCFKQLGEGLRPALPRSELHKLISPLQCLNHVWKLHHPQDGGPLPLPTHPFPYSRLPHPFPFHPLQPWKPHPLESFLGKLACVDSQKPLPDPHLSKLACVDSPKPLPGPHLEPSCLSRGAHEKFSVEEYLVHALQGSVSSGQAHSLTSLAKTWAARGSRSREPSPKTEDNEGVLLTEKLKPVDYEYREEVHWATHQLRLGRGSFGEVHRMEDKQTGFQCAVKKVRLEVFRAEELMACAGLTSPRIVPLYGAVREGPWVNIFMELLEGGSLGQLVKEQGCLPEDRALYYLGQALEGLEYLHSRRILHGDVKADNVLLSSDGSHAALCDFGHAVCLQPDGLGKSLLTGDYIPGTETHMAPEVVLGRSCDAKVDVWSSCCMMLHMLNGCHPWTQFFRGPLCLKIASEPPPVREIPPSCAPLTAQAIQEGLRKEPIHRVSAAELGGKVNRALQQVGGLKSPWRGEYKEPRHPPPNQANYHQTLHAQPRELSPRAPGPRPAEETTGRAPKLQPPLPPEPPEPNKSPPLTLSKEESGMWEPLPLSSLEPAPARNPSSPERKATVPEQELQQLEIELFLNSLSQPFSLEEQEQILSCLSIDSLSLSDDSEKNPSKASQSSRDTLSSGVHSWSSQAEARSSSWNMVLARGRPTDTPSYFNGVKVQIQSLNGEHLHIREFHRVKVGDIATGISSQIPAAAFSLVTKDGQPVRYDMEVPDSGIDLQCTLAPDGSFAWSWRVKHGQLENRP
In short: as §1

[7] = molecular target: HIPK3 (Homo sapiens, UniProt Q9H422); details: HIPK3, 1 μM; read-out: % control
Sequence of HIPK3 (Q9H422 whole entry): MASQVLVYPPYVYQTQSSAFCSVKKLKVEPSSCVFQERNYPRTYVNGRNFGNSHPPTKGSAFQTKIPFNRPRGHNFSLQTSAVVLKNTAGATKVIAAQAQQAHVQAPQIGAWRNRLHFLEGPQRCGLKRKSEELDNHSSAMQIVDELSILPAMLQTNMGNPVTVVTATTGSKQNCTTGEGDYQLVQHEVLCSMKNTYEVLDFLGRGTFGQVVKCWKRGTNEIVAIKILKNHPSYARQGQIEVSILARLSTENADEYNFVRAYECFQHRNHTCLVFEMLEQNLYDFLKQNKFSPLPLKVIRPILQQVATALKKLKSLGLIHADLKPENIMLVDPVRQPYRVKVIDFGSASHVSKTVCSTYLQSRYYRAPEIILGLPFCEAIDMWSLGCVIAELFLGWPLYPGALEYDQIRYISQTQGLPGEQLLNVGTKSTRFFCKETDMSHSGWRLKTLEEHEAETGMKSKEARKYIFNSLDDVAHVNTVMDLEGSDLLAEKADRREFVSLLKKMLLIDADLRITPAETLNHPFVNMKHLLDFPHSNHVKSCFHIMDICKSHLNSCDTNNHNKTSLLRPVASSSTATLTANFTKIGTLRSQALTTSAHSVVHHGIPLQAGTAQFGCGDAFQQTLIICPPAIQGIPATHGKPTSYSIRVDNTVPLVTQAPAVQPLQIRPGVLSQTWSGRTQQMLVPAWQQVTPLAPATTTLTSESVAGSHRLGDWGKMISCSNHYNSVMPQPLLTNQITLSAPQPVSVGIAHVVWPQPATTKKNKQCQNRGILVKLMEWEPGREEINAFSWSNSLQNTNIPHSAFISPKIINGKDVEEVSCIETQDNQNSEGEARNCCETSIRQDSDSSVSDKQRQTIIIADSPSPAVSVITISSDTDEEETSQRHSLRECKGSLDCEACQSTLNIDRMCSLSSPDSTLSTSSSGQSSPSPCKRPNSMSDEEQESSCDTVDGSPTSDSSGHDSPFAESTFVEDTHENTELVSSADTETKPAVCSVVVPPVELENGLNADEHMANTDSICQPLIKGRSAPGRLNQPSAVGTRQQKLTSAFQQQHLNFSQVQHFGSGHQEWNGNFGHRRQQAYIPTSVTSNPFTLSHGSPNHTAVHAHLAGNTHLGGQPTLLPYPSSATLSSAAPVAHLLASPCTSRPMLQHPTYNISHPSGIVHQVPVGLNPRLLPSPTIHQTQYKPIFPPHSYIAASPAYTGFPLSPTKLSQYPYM
In short: as §1

[8] = molecular target: T3, BMX (Homo sapiens, UniProt P51813); details: read-out: % control
T3 construct: purchased KinomeScan®
T3 sequence (P51813 1-675): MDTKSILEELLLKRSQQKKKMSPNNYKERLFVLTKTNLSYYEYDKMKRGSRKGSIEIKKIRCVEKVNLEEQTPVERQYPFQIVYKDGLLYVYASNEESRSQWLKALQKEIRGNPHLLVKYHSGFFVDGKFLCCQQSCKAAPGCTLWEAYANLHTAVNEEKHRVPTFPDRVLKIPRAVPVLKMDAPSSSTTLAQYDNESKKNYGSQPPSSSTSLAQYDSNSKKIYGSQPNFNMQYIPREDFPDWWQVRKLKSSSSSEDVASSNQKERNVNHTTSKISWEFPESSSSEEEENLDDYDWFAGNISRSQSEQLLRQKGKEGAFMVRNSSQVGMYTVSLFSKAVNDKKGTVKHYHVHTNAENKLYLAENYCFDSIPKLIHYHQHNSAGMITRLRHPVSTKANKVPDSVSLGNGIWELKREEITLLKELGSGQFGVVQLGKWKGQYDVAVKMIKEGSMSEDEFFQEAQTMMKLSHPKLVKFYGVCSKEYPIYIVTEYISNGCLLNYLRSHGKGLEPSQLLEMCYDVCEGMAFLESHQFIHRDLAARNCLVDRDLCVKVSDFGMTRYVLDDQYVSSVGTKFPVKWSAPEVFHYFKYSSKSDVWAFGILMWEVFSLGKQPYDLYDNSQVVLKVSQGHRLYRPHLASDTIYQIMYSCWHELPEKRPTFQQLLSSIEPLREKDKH
In short: as §1

T1 sequence (O75676 411-674 limits assumed): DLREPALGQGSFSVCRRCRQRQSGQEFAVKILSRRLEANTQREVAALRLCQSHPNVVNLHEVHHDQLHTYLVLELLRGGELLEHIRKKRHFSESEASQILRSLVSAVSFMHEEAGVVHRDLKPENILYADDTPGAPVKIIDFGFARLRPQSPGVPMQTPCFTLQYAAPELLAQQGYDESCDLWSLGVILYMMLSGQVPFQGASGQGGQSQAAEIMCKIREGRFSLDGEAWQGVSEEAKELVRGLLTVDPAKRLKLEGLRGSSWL

| Compound | remaining binding at 1 µM [1] | remaining binding at 1 µM [2] | remaining binding at 1 µM [3] | remaining binding at 1 µM [4] | remaining binding at 1 µM [5] | remaining binding at 1 µM [6] | remaining binding at 1 µM [7] | remaining binding at 1 µM [8] |
| --- | --- | --- | --- | --- | --- | --- | --- | --- |
| CNc1c(-c2cnn([C@H]3CCN(C(C)=O)C[C@@H]3F)c2)cnc2[nH]cc(Cl)c12 [Compound 77, 1-((3S,4S)-4-(4-(3-chloro-4-(methylamino)-1H-pyrrolo[2,3-b]pyridin-5-yl)-1H-pyrazol-1-yl)-3-fluoropiperidin-1-yl)ethan-1-one] | 90% | 90% | 77% | 81% | 1% | 55% | 85% | 88% |
| O=C(c1ccc(-c2cnc3[nH]cc(Cl)c3c2NC2CCCC2)cc1)N1CCC(N2CCOCC2)CC1 [Compound 101, (4-(3-chloro-4-(cyclopentylamino)-1H-pyrrolo[2,3-b]pyridin-5-yl)phenyl)(4-morpholinopiperidin-1-yl)methanone] | 99% | 100% | 100% | 92% | 2.6% | 88% | 100% | 34% |
| CNc1c(-c2ccc(C(=O)N3CCC(N4CCOCC4)CC3)cc2)cnc2[nH]cc(Cl)c12 [Compound 96, (4-(3-chloro-4-(methylamino)-1H-pyrrolo[2,3-b]pyridin-5-yl)phenyl)(4-morpholinopiperidin-1-yl)methanone] | 65% | 92% | 84% | 19% | 14% | 13% | 79% | 93% |
